Test [1] relates to lactose transport in S. cerevisiae L1582/pKR1B-LAC4-1. As to the kind of experiment: Lactose transport ([14C]lactose uptake) in Lac+ S. cerevisiae. The format is cell-based. The conditions noted are these: for inhibition of lactose transport (stereospecificity, in words): summary of Table 1 (L1582/pKR1B-LAC4-1 and K. lactis). Here is the method: The rate of lactose transport as a function of substrate concentration is shown for two experiments using Lac^+ L1582/pKR1B-LAC4-1 (.smallcircle.--.smallcircle.) and Lac^+ L1582/pKR1B-LAC4-Δ1087(.quadrature.--.quadrature.). For each concentration of lactose, the rate of transport represented the average of samples taken at 30, 60, and 90 seconds.
(§1) After warming the cells to 23° C. the competing compound was added to a final concentration of 50 mM. Thirty seconds later [^14 C] lactose was added to a final concentration of 1 mM and 100 μl samples were filtered 1 and 2 minutes later. […] For K. lactis the experiment was done twice and for S. cerevisiae it was done three times. Averaged values with or without a standard deviation are shown.
(§2) Finally, the lactose transport in LAC^+ S. cerevisiae was determined to be an energy-dependent process, as it is in K. lactis. To measure energy dependence, cells were pre-incubated for 20 minutes with 1 mM 2,4-dinitrophenol at ambient temperature.
(§3) The kinetics of lactose transport were measured to determine if Lac^+ S. cerevisiae transported measurable quantities of lactose and to determine the time scale over which the apparent initial velocity of transport could be measured. Lactose transport was measured using the following procedure. Saturated cultures of cells were obtained by growth at 30° C. in medium A: 10 g yeast extract, 20 g peptone, 100 ml of 20% lactic acid (titrated to pH 4.5 with solid sodium hydroxide) and 100 ml of 20% glycerol per liter, or medium B: 3.4 g yeast nitrogen base (Difco, without amino acids or ammonium sulfate), 10 g ammonium sulfate, 3 g 20 mg adenine, 20 mg uracil, 20 mg leucine, 20 mg histidine, 20 mg tryptophan, 20 mg methionine and 20 mg lysine per liter. Strain MS425/pKR1B of K. lactis was grown on medium A containing 10 μg G418/ml, while S. cerevisiae strains L1582/pKR1B, and YNN27/pKR1B were grown on the same medium containing 200 μg […] Strains L1582 or YNN27 transformed with either plasmid A, B, or C (autonomous or integrated) were grown on medium B.
(§4) This procedure is a modification of the procedure described by Serrano, R. (1977) European J. of Biochem. 80:97-10^2. To prepare cells for transport measurements, a saturated culture was diluted into fresh medium and grown from […]. Cells were harvested by filtration (45 mm dia, 0.45 μm Millipore type HA), washed four times with 10 ml of ice cold distilled water, and then resuspended in 100 mM tartaric acid (titrated to pH 4.2 with sodium hydroxide) at 60 to 100 A600 /ml. At this point cells could be stored at 4° C. for up to 24 hours without loss of transport activity.
(§5) To measure lactose transport, a sample of cells, 0.3 to 1.0 ml, was warmed to 23° C. for 2 min, lactose was added to the desired concentrations and at zero time 0.luCi of D-Glucose-[^14C ]lactose (CFA 278; 58 mCi/mM; Amersham Corp., Lexington, Mass.) was added per 0.3 ml of cells. At the indicated times 100 μl samples were filtered on 25 mm diameter Nuclepore filters (0.4μm pore size; Nuclepore Corp., Pleasanton, Cal.). The filter was washed twice with 5 ml of ice cold distilled water, dried and counted in 4 ml of a toluene-based cocktail containing 250 ml of triton X-100 and 6.5 g p-terphenyl per liter using a liquid scintillation counter. The specific activity, cpm/pmole of lactose, of each reaction was determined by counting a 10 μl sample. Data are expressed as pmoles of intracellular lactose per A600. Background transport was measured using cells that were heated for 3 min at 90° C. Typical background was 25 to 30 cpm.
The lactose transport in Lac^+ S. cerevisiae was determined to be an energy-dependent process, as it is in K. lactis. To measure energy dependence, cells were pre-incubated with 1 mM […] for 20 minutes at ambient temperature and then the uptake of 1 mM ^14 C-lactose was measured. […]

Test [2] has as its system lactose transport in K. lactis MS425/pKR1B. Description: Lactose transport ([14C]lactose uptake) in K. lactis. It is filed as cell-based. Here is the method: as §1, §2, §3, §4, §5
The lactose transport in Lac^+ S. cerevisiae was determined to be an energy-dependent process, as it is in K. lactis. To measure energy dependence, cells were pre-incubated with 1 mM […] for 20 minutes at ambient temperature and then the uptake of 1 mM ^14 C-lactose was measured. Lactose transport was inhibited 91% both in the Lac^+ strain of S. cerevisiae , L1582/pKR1B-LAC4-1, and in the K. lactis strain MS425/pKR1B.

Where [3] appears, read: pre-incubated 20 minutes with 1 mM at ambient temperature.
Where [4] appears, read: Saccharomyces cerevisiae, competing compound 50 mM, [14C]lactose 1 mM, 23° C., samples at 1 and 2 minutes, average of three experiments with standard deviation.
The mark [5] stands for this setting: Kluyveromyces lactis, competing compound 50 mM, [14C]lactose 1 mM, 23° C., samples at 1 and 2 minutes, average of two experiments.

Where “and” joins values, the source holds several entries; their conditions need not be identical. Equal entries are not always repeated.

For the molecule `O=[N+]([O-])c1ccc(O)c([N+](=O)[O-])c1` [2,4-dinitrophenol], the inhibition at 1000 µM stood at 91% in test [1] (Saccharomyces cerevisiae, read-out: Lactose transport inhibited (energy dependence), S. cerevisiae L1582/pKR1B-LAC4-1) and 91% in test [2] (Kluyveromyces lactis, read-out: Lactose transport inhibited (energy dependence), K. lactis MS425/pKR1B). In addition, the “Lactose transport inhibition in words (energy dependence), S. cerevisiae L1582/pKR1B-LAC4-1” value in test [1] (setting [3]) was “inhibited almost completely”. For the same molecule, the “Lactose transport inhibition in words (energy dependence), K. lactis MS425/pKR1B” value in test [2] (setting [3]) is reported as “inhibited almost completely”.
With `O=C[C@@H](O)[C@H](O[C@@H]1O[C@H](CO)[C@H](O)[C@H](O)[C@H]1O)[C@H](O)CO` [3-0-β-D-galactosyl-D-arabinose], the “% Inhibition of Lactose Transport, S. cerevisiae L1582/pKR1B-LAC4-1” value in test [1] (competing compound 50 mM, [14C]lactose 1 mM, 23° C., samples at 1 and 2 minutes, average of three experiments with standard deviation) stood at 90 ± 6%. The “inhibition of lactose transport (stereospecificity, in words)” value (shortened to “inhibition … (stereospecificity, in words)”) in test [1] is “strongest inhibition”. In test [2] (competing compound 50 mM, [14C]lactose 1 mM, 23° C., samples at 1 and 2 minutes, average of two experiments), the “% Inhibition of Lactose Transport, K. lactis MS425/pKR1B” value stood at 93%.
Consider `O=[N+]([O-])c1ccc(O[C@H]2O[C@H](CO)[C@H](O)[C@H](O)[C@H]2O)cc1` [4-nitrophenyl-α-D-galactoside], for which the “inhibition … (stereospecificity, in words)” value in test [1] was “inhibited only weakly”.
For the molecule `OC[C@H]1O[C@H](OC[C@H]2OC(O)[C@H](O)[C@@H](O)[C@@H]2O)[C@H](O)[C@@H](O)[C@H]1O` (stereo partly drawn) [6-0-α-D-galactosyl-D-glucose], the inhibition at 50000 µM turned out to be 10.7 ± 8% in test [1] (setting [4]) and 10% in test [2] (setting [5]). Also, the “inhibition … (stereospecificity, in words)” value in test [1] is “inhibited only weakly”.
The matching figures for `O=C[C@H](O)[C@@H](O)[C@@H](O)[C@H](O)CO` [D-galactose]: 24.3 ± 7.2%, 26% and “only moderate inhibition”.
The matching figures for `OC[C@H]1O[C@@H](S[C@@H]2O[C@H](CO)[C@H](O)[C@H](O)[C@H]2O)[C@H](O)[C@@H](O)[C@H]1O` [D-galactosyl-1-thio-β-D-galactoside]: 4.9 ± 4%, 28% and “only moderate inhibition”.
One may read the Km as the concentration of substrate that gives half-maximal velocity. Take `OC[C@H]1O[C@@H](O[C@H]2[C@H](O)[C@@H](O)C(O)O[C@@H]2CO)[C@H](O)[C@@H](O)[C@H]1O` (stereo partly drawn) [lactose, 4-0-beta-D-galactosyl-D-glucose]: the Km was 970 µM and 1090 µM in test [1] (two experiments of FIG. 4: Lac+ L1582/pKR1B-LAC4-1 and Lac+ L1582/pKR1B-LAC4-Δ1087, rates averaged from 30, 60 and 90 seconds, read-out: apparent Km for lactose transport, Lac+ S. cerevisiae); 670 µM in test [2] (K. lactis strain MS425, read-out: apparent Km for lactose transport, K. lactis strain MS425).
